Laboratory results taken from the supplement of paper PMC10883282.

Assays:
Assay in all cases: relative viability vs DMSO control (72 h) (fraction); higher = more viable cells
[1] = tested on: HT1080
Outline: (§1)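 A 5 µM positive control and 0.1% DMSO vehicle ran alongside sarcoma cell lines seeded in 384-well plates to reach 80–90% confluence. Serially diluted compound, 2.5 µl from source plates of 10 mM to 0.0002 mM, was added after 24 h, and the plates were held 72 h at 37 °C, 5% CO2. Relative viability was worked out from ATPLite readings as percent growth averaged over up to triplicate wells. The values were rescaled so that 1 is full and 0 is none.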

[2] = tested on: KHOS-NP
Outline: as §1

[3] = tested on: RD-ES
Outline: as §1

[4] = tested on: RD
Outline: as §1

[5] = tested on: VA-ES-BJ
Outline: as §1

NC(=O)c1cccc2cn(-c3ccc([C@@H]4CCCNC4)cc3)nc12 [Niraparib]
relative viability
Details	[1]	[2]	[3]	[4]	[5]
0.00017 µM	1.06	1.05	0.997	1.06	0.985
0.00051 µM	1.05	1.04	1.01	1.09	0.995
0.00152 µM	1.01	1.04	0.9697	1.1	0.976
0.00457 µM	1.04	1.06	0.988	1.117	0.96
0.01372 µM	1.01	1.045	0.966	1.09	0.99
0.04115 µM	1.01	1.04	0.966	1.12	1.01
0.1235 µM	1.041	1.06	0.962	1.08	0.983
0.3704 µM	1.02	1.08	0.899	1.05	0.947
1.111 µM	1.09	1.05	0.783	1.006	0.915
3.333 µM	1.09	1.079	0.504	0.899	0.873
10 µM	1.03	1.04	0.0364	0.784	0.708

C=CC(=O)Nc1cc(Nc2nccc(-c3cn(C)c4ccccc34)n2)c(OC)cc1N(C)CCN(C)C [Osimertinib]
relative viability
Details	[1]	[2]	[3]	[4]	[5]
0.00017 µM	1.08	1.1	0.962	1.08	1.09
0.00051 µM	1.09	1.11	0.978	1.08	1.09
0.00152 µM	1.06	1.084	0.977	1.11	1.06
0.00457 µM	1.06	1.08	0.971	1.11	1.04
0.01372 µM	1.04	1.07	0.979	1.11	1.03
0.04115 µM	1.06	1.06	0.964	1.11	1.02
0.1235 µM	1.07	1.06	0.947	1.1	0.984
0.3704 µM	1.03	1.05	0.892	1.07	0.926
1.111 µM	0.992	1.05	0.775	1.02	0.877
3.333 µM	0.935	1.02	0.598	0.78	0.752
10 µM	0.0308	0.505	0.0212	0.0148	0.0739

C1=N/C2=N/c3ccc(OCCN4CCCC4)c(c3)COC/C=C/COCc3cccc(c3)C(=C1)N2 [Pacritinib]
relative viability
Details	[1]	[2]	[3]	[4]	[5]
0.00017 µM	1.09	1.09	1	1.08	1.11
0.00051 µM	1.07	1.12	1.03	1.1	1.11
0.00152 µM	1.09	1.107	1.04	1.12	1.09
0.00457 µM	1.09	1.11	1.01	1.11	1.07
0.01372 µM	1.08	1.125	1.03	1.13	1.06
0.04115 µM	1.09	1.117	1	1.111	1.08
0.1235 µM	1.08	1.116	0.967	1.07	1.02
0.3704 µM	1.12	1.112	0.821	0.823	0.855
1.111 µM	0.925	0.996	0.437	0.462	0.149
3.333 µM	0.169	0.451	0.109	0.158	0.0927
10 µM	0.101	0.516	0.165	0.144	0.0817

NC(=O)c1cnc2[nH]ccc2c1N[C@@H]1[C@@H]2CC3C[C@H]1C[C@@](O)(C3)C2 [Peficitinib]
relative viability
Details	[1]	[2]	[3]	[4]	[5]
0.00017 µM	1.058	1.09	0.973	1.03	1.06
0.00051 µM	1.05	1.06	0.99	1.04	1.03
0.00152 µM	1.06	1.08	0.968	1.04	1.01
0.00457 µM	1.03	1.07	0.963	1.04	1.01
0.01372 µM	1.03	1.05	0.984	1.03	1.04
0.04115 µM	1.06	1.06	0.981	1.05	1.06
0.1235 µM	1.06	1.07	1	1.07	1.04
0.3704 µM	1.11	1.07	1.01	1.1	1.05
1.111 µM	1.22	1.07	1	1.117	1.08
3.333 µM	1.35	1.02	0.986	1.099	1.042
10 µM	1.29	0.671	0.227	1.01	0.887

CCCCCCCCCCCCCCCCCCOP(=O)([O-])OC1CC[N+](C)(C)CC1 [Perifosine]
relative viability
Details	[1]	[2]	[3]	[4]	[5]
0.00017 µM	1.1	1.09	0.985	1.05	1.08
0.00051 µM	1.083	1.1	1	1.07	1.09
0.00152 µM	1.07	1.099	1.03	1.09	1.05
0.00457 µM	1.06	1.11	1.002	1.11	1.1
0.01372 µM	1.063	1.1	0.978	1.07	1.07
0.04115 µM	1.06	1.08	0.989	1.07	1.091
0.1235 µM	1.04	1.067	1.02	1.1	1.06
0.3704 µM	1.0633	1.07	1.01	1.07	1.05
1.111 µM	1.04	1.03	0.985	1.08	1.05
3.333 µM	1.037	0.984	0.983	1.09	1.02
10 µM	1.05	0.496	0.996	0.997	0.2547

FC(F)(F)c1ccc(CNc2ccc(Cc3c[nH]c4ncc(Cl)cc34)cn2)cn1 [Pexidartinib]
relative viability
Details	[1]	[2]	[3]	[4]	[5]
0.00017 µM	1.14	1.106	0.973	1.12	1.07
0.00051 µM	1.12	1.1	0.99	1.1	1.068
0.00152 µM	1.12	1.084	1.01	1.12	1.07
0.00457 µM	1.05	1.08	1.02	1.13	1.06
0.01372 µM	1.1	1.07	1.02	1.13	1.05
0.04115 µM	1.1	1.05	0.982	1.11	1.04
0.1235 µM	1.06	1.05	1.01	1.12	1.06
0.3704 µM	1.08	1.032	0.998	1.15	1.04
1.111 µM	1.05	1.024	0.977	1.14	1.03
3.333 µM	1.065	1.022	0.959	1.15	1.03
10 µM	1.02	0.987	0.969	1.17	1.05

CCOc1cc2ncc(C#N)c(Nc3ccc(OCc4ccccn4)c(Cl)c3)c2cc1NC(=O)/C=C/[C@H]1CCCN1C [Pyrotinib]
relative viability
Details	[1]	[2]	[3]	[4]	[5]
5.081 pM	1.07	1.08	0.971	1.06	1.06
15.24 pM	1.13	1.12	0.968	1.08	1.05
45.72 pM	1.103	1.08	0.969	1.11	1.02
0.000137174 µM	1.13	1.11	0.978	1.11	1.04
0.000411523 µM	1.11	1.07	0.983	1.07	0.99
0.00123457 µM	1.06	1.09	0.971	1.08	0.981
0.0037037 µM	1.12	1.07	0.965	1.14	1.02
0.0111111 µM	1.09	1.1	0.9672	1.08	0.983
0.0333333 µM	1.078	1.073	0.953	1.11	0.969
0.1 µM	1.07	1.09	0.955	1.06	0.9689
0.3 µM	1.08	1.08	0.95	1.07	0.942

Cc1cn(-c2cc(NC(=O)c3ccc(C)c(Nc4nccc(-c5cnccn5)n4)c3)cc(C(F)(F)F)c2)cn1 [Radotinib]
relative viability
Details	[1]	[2]	[3]	[4]	[5]
0.00017 µM	1.07	1.12	0.982	1.11	1.05
0.00051 µM	1.06	1.09	1.02	1.1	1.08
0.00152 µM	1.07	1.11	1.01	1.12	1.05
0.00457 µM	1.07	1.11	1.02	1.12	1.06
0.01372 µM	1.07	1.12	1.005	1.12	1.08
0.04115 µM	1.06	1.12	1.01	1.11	1.05
0.1235 µM	1.07	1.11	1.03	1.13	1.11
0.3704 µM	1.09	1.1	1.01	1.12	1.17
1.111 µM	1.03	1.1	1	1.1	1.18
3.333 µM	1.12	1.09	0.991	1.07	1.21
10 µM	1.06	1.07	1.01	1.04	1.21
